# Assay results taken from patent publication US11472807B2, “Purine derivatives for use as medicament and for use in treating neurodegenerative or neuro-inflammatory disorders” (COMMISSARIAT À L'ENERGIE ATOMIQUE ET AUX ENERGIES …, priority 2017, dated 2022).
# How the values were obtained:
# p-Tau (Thr212) = assay: p-Tau (Thr212)/total Tau in rat cortical neurons (western-blot); assay type: cell-based; details: purine derivative 10 μM (A100), 18 h
# Method: Cells were lysed in freshly prepared lysis buffer containing in mM: Tris-HCl 50, EDTA 2, EGTA 2, NaCl 100, SDS 0.2%, Triton X-100 1%, proteases inhibitors (Roche Protease Inhibitor Cocktail #04693116001), phosphatases inhibitors (in mM: ammonium molybdate 0.1, β-glycerophosphate 20, NaF 50, Na-pyrophosphate 10, Orthovanadate 1). Protein concentration was measured by the Bradford assay and Laemmli buffer was added to each lysate. Proteins (10 μg per lane) were resolved on 12% Nu-PAGE (LifeTechonoliges #NP0342BOX) using MOPS SDS running buffer and transferred on Immobilon-FL PVDF membrane (Millipore #IPFL00010). Membranes were blocked one hour in TBS Tween20 0.1% BSA 5% at room temperature. Primary antibodies were incubated O/N at 4° C. and detected by Alexa 488 conjugated secondary antibodies (Life Techonologies #A11034 and A11029) diluted 1:1.000 in TBS Tween20 0.05% and 1% BSA. The antibodies specific for pThr212-Tau (Abcam #ab4842), pThr181-Tau (AbCam #ab75679), Tau (Millipore #MAB361), APP (Millipore #07-667) and Actin (Millipore #MAB1501) were diluted in TBS Tween20 0.05% and 1% BSA. Fluorescent signal was visualized with the VersaDoc™ Imaging System (Bio-Rad Laboratories) and quantified with Quantity One® Analysis Software. Grey levels measured for bands of interest were normalized to the corresponding actin bands.
# For assessing the protein Tau's phosphorylation, the culture media of rat cortical neurons were replaced by incubation medium containing purine derivatives at 10 μM (A100) or vehicle (0.1% DMSO; Control). After 18 h incubation p-Tau (Thr212) and total Tau were quantified in the cellular extracts by western-blot.
# TNF-α = TNF-α mRNA in OHSC (RT-qPCR); assay type: cell-based, mice; details: 50 μM, 10 days
# Method: (§1) FIG. 10. Plots illustrating the effect of Aftin-5 on relative mRNA expression levels of interleukin-1-beta (IL-1β; (A)), interleukin-6 (IL-6; (B)), TNF-alpha (TNFα; (C)) and interleukin-10 (IL-10; (D)) in organotypic hippocampal slice cultures (OHSC). OHSC culture media of cortical neurons were replaced by incubation medium containing Aftin-5 (50 μM; A50) or vehicle (0.1% DMSO; Veh). 10 days later, total mRNA in lysate was isolated and purified, cDNAs were then synthesized from […] of total mRNA. cDNAs were amplified by quantitative RT-PCR and the relative expression of specific genes was normalized to the housekeeping gene HPRT1 (2^−ΔCt). Mann-Whitney tests were performed and ***p<0.001 indicates significant differences between Aftin-5 and control conditions. Data expressed as means+/−SEM from q=3 independent experiments with n=4-6 inserts/condition and 10 slices/insert. […]
# (§2) The impact of Aftin-5 on gene expression of different biomarkers was determined by measuring mRNA levels of selected BDNF, CREB, PS95, INS Receptor/IGF-1 receptor, IL-1β, IL-6 in OHSC treated chronically with Aftin-5 or in a total brain from mice exposed to Aftin-5 at either 8 or 30 mg/Kg. […] Threshold cycles (Ct) of target gene and cyclophilin A (Ppia−control housekeeping gene) were recorded and gene expression was calculated as 2^−ΔΔCt(ΔΔCt=ΔCttreated−ΔCtcontrol, ΔCt=Cttarget−CtPpia). […]
# IL-1β = IL-1β mRNA in OHSC (RT-qPCR); assay type: cell-based, mice; details: 50 μM, 10 days, vs vehicle, P<0.001
# Method: as §1, §2
# InsR (insulin-receptor) = assay: Insulin receptor mRNA in OHSC (RT-qPCR); assay type: cell-based, mice; details: 50 μM for 10 days, P<0.05
# Method: as §1, with “12.” for “10.”, “murine insulin-like growth factor-1 receptor (IGF1-R; (A))” for “interleukin-1-beta (IL-1β; (A)), interleukin-6 (IL-6; (B)), TNF-alpha (TNFα; (C))”, “murine insulin receptor (Insr; (B))” for “interleukin-10 (IL-10; (D))”, “OHSC” for “cortical neurons”, “(2^−ΔCt)” for “(2^−ΔCt).”, “*p<0.05” for “***p<0.001”
# as §2
structure (smiles),measurement,setting,value
CC[C@H](CO)Nc1nc(N(C)c2ccccc2)c2ncn(C(C)C)c2n1 [Aftin-5],Attenuation of P-Tau/Tau ratio,p-Tau (Thr212),+(>1 μM) (“+” means that the tested compound shows an anti-inflammatory and/or attenuation of Tau's phosphorylation property with a concentration higher than 1 μM)
same,TNF-α mRNA synthesis,TNF-α,no changes
same,IL-1β-mRNA synthesis,IL-1β,significantly decrease
same,InsR-mRNA,InsR (insulin-receptor),increased dramatically
